# Experimental data taken from US8183264B2, “Pyridine derivative substituted by heteroaryl ring, and antifungal agent comprising the same” (Eisai R&D Managment Co., Ltd., priority 2006, dated 2012).
# How the values were obtained:
# [1] = test system: A. fumigatus Tsukuba strain; assay: Anti-Aspergillus activity (MIC measurement); assay type: cell-based; conditions: minimum inhibitory concentration (MIC) by visual inspection, RPMI 1640, 42 to 48 hours at 35° C.
# Description: (§1) 1. Anti-Candida Activity and Anti-Aspergillus Activity
# (§2) (1) Preparation of Fungal Sample
# (§3) For the C. albicans CAF2-1 strain, a fungal suspension from a standing culture for 48 hours at 30° C. in a Sabouraud dextrose liquid culture medium (SDB) was diluted with RPMI 1640 medium to adjust a fungal suspension of 1.2×10^3 cells/mL. For the A. fumigatus Tsukuba strain, −80° C. stored strain was diluted with RPMI 1640 medium to adjust to a fungal suspension of 4.5×10^3 cells/mL.
# (§4) (2) Preparation of an Agent Dilution Plate
# (§5) Using a U-bottomed 96-well plate, 8 samples/plate (A to H) of sample dilution solutions were prepared. On the 2nd to 12th rows were dispensed 10 μL of dimethyl sulfoxide solution. Weighed sample was dissolved in dimethyl sulfoxide to prepare a 2.5 mg/mL solution, 20 μL of this solution was added to the first row of the prepared plate, and 12 steps of two-fold step dilutions (10 μL of solution+10 μL of dimethyl sulfoxide solution) were performed on the plate. This sample dilution solution was dispensed in an amount of 1 μL into a flat-bottomed 96-well plate for MIC measurement to prepare a sample dilution plate.
# (§6) (3) Inoculation of Fungal Suspension and Culture
# (§7) The fungal suspension prepared in (1) was used in an amount of 99 μL/well to inoculate the flat-bottomed 96-well plate containing 1 μL/well of the test compound dilution prepared in (2), and standing culture was performed aerobically for 42 to 48 hours at 35° C.
# (§8) The following representative compounds prepared in the examples were measured for anti-Candida activity and anti-Aspergillus activity by measurement method in (1).
# [2] = test system: C. albicans CAF2-1 strain; assay: Anti-Candida activity (MIC measurement); assay type: cell-based; conditions: CAF21STRAIN, minimum inhibitory concentration (MIC) by visual inspection, RPMI 1640, 42 to 48 hours at 35° C.
# Description: as §1, §2, §3, §4, §5, §6, §7, §8
Structure (SMILES),MIC [1] [µg/mL],MIC [2] [µg/mL]
"Nc1ncccc1-c1cn(Cc2ccc(OCc3ccccc3)cc2)nn1 [Example 1, 3-(1-(4-Benzyloxy-benzyl)-1H-[1,2,3]triazol-4-yl)-pyridin-2-ylamine]",0.2,0.05
"Cc1ccc(-c2cn(Cc3ccc(OCc4ccccc4)cc3)nn2)cn1 [Example 2, 5-(1-(4-Benzyloxy-benzyl)-1H-[1,2,3]triazol-4-yl)-2-methyl-pyridine]",1.56,3.13
"Nc1ccc(-c2cn(Cc3ccc(OCc4ccccc4)cc3)nn2)cn1 [Example 3, 5-(1-(4-Benzyloxy-benzyl)-1H-[1,2,3]triazol-4-yl)-pyridin-2-ylamine]",0.78,1.56
"Nc1ccc(-c2cn(Cc3ccc(OCc4ccccc4)cc3)nn2)c(N)n1 [Example 4, 3-(1-(4-Benzyloxy-benzyl)-1H-[1,2,3]triazol-4-yl)-pyridin-2,6-diamine]",0.78,0.39
"COCc1ccc(-c2nnn(Cc3ccc(OCc4ccccc4)cc3)n2)c(N)n1 [Example 6, 3-(2-(4-Benzyloxy-benzyl)-2H-tetrazol-5-yl)-6-methoxymethyl-pyridin-2-ylamine]",1.56,1.56
"Nc1ccc(-c2nnn(Cc3ccc(OCc4ccccc4)cc3)n2)c(N)n1 [Example 7, 3-(2-(4-Benzyloxy-benzyl)-2H-tetrazol-5-yl)-pyridin-2,6-diamine]",1.56,0.39
Nc1ncccc1-c1nnc(Cc2ccc(OCc3ccccc3)cc2)s1 [Example 8],1.56,0.78
Nc1ccc(-c2nnc(Cc3ccc(OCc4ccccc4)cc3)s2)c(N)n1 [Example 10],25,3.13
COCc1ccc(-c2nnc(Cc3ccc(OCc4ccccc4)cc3)o2)c(N)n1 [Example 11],3.13,6.25
"Nc1ncccc1-n1cc(Cc2ccc(OCc3ccccc3)cc2)nn1 [Example 12, 3-(4-(4-Benzyloxy-benzyl)-[1,2,3]triazol-1-yl)-pyridin-2-ylamine]",0.2,0.2
"Nc1ncccc1-c1noc(Cc2ccc(OCc3ccccc3)cc2)n1 [Example 13, 3-(5-(4-Benzyloxy-benzyl)-[1,2,4]-oxadiazol-3-yl)-pyridin-2-ylamine]",1.56,1.56
"Nc1ncccc1-c1ncn(Cc2ccc(OCc3ccccc3)cc2)n1 [Example 14, 3-(1-(4-Benzyloxy-benzyl)-1H-[1,2,4]triazol-3-yl)-pyridin-2-ylamine]",> 25,6.25
"Nc1ncccc1-c1nnc(Cc2ccc(OCc3ccccc3)cc2)[nH]1 [Example 15, 3-(5-(4-Benzyloxy-benzyl)-4H-[1,2,4]triazol-3-yl)-pyridin-2-ylamine]",3.13,6.25
"Nc1ncccc1-c1cn(Cc2ccc(Cc3ccc(Cl)o3)cc2)nn1 [Example 16, 3-(1-(4-(5-Chloro-furan-2-ylmethyl)-benzene)-1H-[1,2,3]triazol-4-yl)-pyridin-2-ylamine]",0.78,0.05
"Cc1ccc(-c2cn(Cc3ccc(Cc4ccc(Cl)o4)cc3)nn2)cn1 [Example 17, 5-(1-(4-(5-Chloro-furan-2-ylmethyl)-benzyl)-1H-[1,2,3]triazol-4-yl)-2-methyl-pyridine]",0.78,3.13
"COCc1ccc(-c2cn(Cc3ccc(Cc4ccc(Cl)o4)cc3)nn2)c(N)n1 [Example 19, 3-(1-(4-(5-Chloro-furan-2-ylmethyl)-benzyl)-1H-[1,2,3]triazol-4-yl)-6-methoxymethyl-pyridin-2-ylamine]",3.13,0.39
"Nc1ncccc1-c1nnn(Cc2ccc(Cc3ccc(Cl)o3)cc2)n1 [Example 21, 3-(2-(4-(5-Chloro-furan-2-ylmethyl)-benzyl)-2H-tetrazol-5-yl)-pyridin-2-ylamine]",0.39,0.39
"Nc1ccc(-c2nnn(Cc3ccc(Cc4ccc(Cl)o4)cc3)n2)c(N)n1 [Example 22, 3-(2-(4-(5-Chloro-furan-2-ylmethyl)-benzyl)-2H-tetrazol-5-yl)-pyridin-2,6-diamine]",1.56,0.39

Structure (SMILES),MIC [1] [µg/mL],MIC [2] [µg/mL]
Nc1ncccc1-c1noc(Cc2ccc(OCc3ccccn3)cc2)n1 [Example 23],6.25,1.56
Nc1ncccc1-c1nnc(Cc2ccc(OCc3ccccn3)cc2)o1 [Example 24],6.25,1.56
"Nc1ncccc1-c1cn(Cc2ccc(COc3ccccn3)cc2)nn1 [Example 26, 3-(1-(4-(Pyridin-2-yloxymethyl)-benzyl)-1H-[1,2,3]triazol-4-yl)-pyridin-2-ylamine]",0.39,0.05
"Nc1ncccc1-c1cn(Cc2cccc(Oc3ccccc3)c2)nn1 [Example 28, 3-(1-(3-Phenoxy-benzyl)-1H-[1,2,3]triazol-4-yl)-pyridin-2-ylamine]",1.56,0.1
"Nc1ccc(-c2cn(Cc3cccc(Oc4ccccc4)c3)nn2)cn1 [Example 29, 5-(1-(3-Phenoxy-benzyl)-1H-[1,2,3]triazol-4-yl)-pyridin-2-ylamine]",1.56,0.39
"Nc1ncccc1-c1nnn(Cc2cccc(Oc3ccccc3)c2)n1 [Example 31, 3-(2-(3-Phenoxy-benzyl)-2H-tetrazol-5-yl)-pyridin-2-ylamine]",0.78,0.39
"Nc1ncccc1-c1cn(Cc2ccc(Oc3ccccc3)cc2)nn1 [Example 32, 3-(1-(4-Phenoxy-benzyl)-1H-[1,2,3]triazol-4-yl)-pyridin-2-ylamine]",0.39,0.1
"Nc1ncccc1-c1nnn(Cc2ccc(Oc3ccccc3)cc2)n1 [Example 35, 3-(2-(4-Phenoxy-benzyl)-2H-tetrazol-5-yl)-pyridin-2-ylamine]",0.78,1.56
"Nc1ncccc1-c1cn(Cc2ccc(COc3ccccc3)cn2)nn1 [Example 37, 3-(1-(5-Phenoxymethyl-pyridin-2-ylmethyl)-1H-[1,2,3]triazol-4-yl)-pyridin-2-ylamine]",1.56,0.2
"Nc1ccc(-c2nnn(Cc3ccc(OCc4ccccc4)cn3)n2)c(N)n1 [Example 40, 3-(2-(5-Benzyloxy-pyridin-2-ylmethyl)-2H-tetrazol-5-yl)-pyridin-2,6-diamine]",> 25,1.56
"CCCCOc1ccc(Cc2nnc(-c3cccnc3N)o2)cc1 [Example 45, 3-(5-(4-Butoxy-benzyl)-[1,3,4]oxadiazol-2-yl)-pyridin-2-ylamine]",12.5,6.25
"Nc1ncccc1-c1nnn(Cc2ccc(Oc3ccccc3)s2)n1 [Example 46, 3-(2-(5-Phenoxy-thiophen-2-ylmethyl)-2H-tetrazol-5-yl)-pyridin-2-ylamine]",1.56,0.39
"Nc1ncccc1-c1nnn(Cc2ccc(OCc3ccccc3)s2)n1 [Example 48, 3-(2-(5-Benzyloxy-thiophen-2-ylmethyl)-2H-tetrazol-5-yl)-pyridin-2-ylamine]",1.56,0.39
"Nc1ncccc1-c1nnn(Cc2ccccc2)n1 [Example 49, 3-(2-Benzyl-2H-tetrazol-5-yl)-pyridin-2-ylamine]",12.5,1.56
"CCOc1ccc(Cn2nnc(-c3cccnc3N)n2)cc1 [Example 50, 3-(2-(4-Ethoxy-benzyl)-2H-tetrazol-5-yl)-pyridin-2-ylamine]",> 25,6.25
"Nc1ncccc1-c1nnn(Cc2ccc(Oc3ccc(F)cc3)o2)n1 [Example 51, 3-(2-(5-(4-Fluoro-phenoxy)-furan-2-ylmethyl)-2H-tetrazol-5-yl)-pyridin-2-ylamine]",3.13,6.25
"Cc1ccc(Cc2cccc(Cn3nnc(-c4cccnc4N)n3)c2)s1 [Example 52, 3-(2-(3-(5-Methyl-thiophen-2-ylmethyl)-benzyl)-2H-tetrazol-5-yl)-pyridin-2-ylamine]",3.13,1.56
"Nc1ncccc1-c1nnn(Cc2ccn(Cc3ccccc3)c2)n1 [Example 55, 3-(2-(1-Benzyl-1H-pyrrol-3-ylmethyl)-2H-tetrazol-5-yl)-pyridin-2-ylamine]",0.78,0.1
